Reference: US6451836B1, “Method of inhibiting liver glycogen phosphorylase with 2-alkylpyrrolidines” (Novo Nordisk A/S, priority 1995, dated 2002)
Where two headings read alike, the source gives them in different places.

What was measured:
type 2 diabetic patients = settings: Sels et al. (Netherland J.Med. 44 (1994), 198); cited from earlier work
female ob/OB mice = assay: glucagon mediated increase in blood glucose in mice; format: in vivo; settings: for Delta plasma glucose: glucagon s.c., female ob/OB mice fasted 3 hours, averages ± S.D., N = 5, control 6.3 ± 1.0; for reduction of blood glucose (in words): glucagon mediated increase in blood glucose in mice, Table 1
Protocol: For in vivo studies, female ob/OB mice (20 g) fasted for 3 hours were used. Test compounds or NaCl (0.9%; controls) were administered intraveneously (hereinafter designated i.v.). Glucagon were administered subcutaneously (herein-after designated s.c.) in order to increase hepatic glucose output derived from glycogen. Blood samples were drawn from the orbital vain and analyzed for glucose using a glucose oxidase method.

Rat hepatocytes = assay: baseline and glucagon stimulated glucose production from cultured liver cells; format: cell-based; settings: for Glucose production without glucagon: relative to the basal glucose production (no addition 100%); for Glucose production without glucagon / Glucose production with glucagon (0.5 nM): 70 minutes; for Glucose production with glucagon (0.5 nM): relative to the basal glucose production (no addition 233%); for inhibition of hepatocyte glucose production (in words): basal and glucagon stimulated
Protocol: During the last 24 hours, the hepatocytes were cultured in the presence of high levels of insulin (5 nM) and glucose (15 mM), which result in the incorporation of glucose into glycogen. Therefore, at the time of the experiment, the cells mimic livers from fed animals. Experiments were initiated after 48 hours of culture by 2 times wash of cells and addition of a 20 mM HEPES experimental buffer including balanced salts, but without glucose. The test compound was added simultaneously with the experimental buffer. To some cultures, glucagon (0.5 nM) was added after 10 minutes in order to stimulate glucose production from liver cells. The glucose released into the media, reflecting the glucose production of the liver cells, was measured 70 minutes after the start of the experiment and standardized to cellular DNA content.

α-1,6-glucosidase [1] = target: T1, α-1,6-glucosidase (Homo sapiens, UniProt P35573); settings: From: Fleet et al. (Tetrahedron 20 (1986), 5685); read-out: 1,6-glucosidase, concentration resulting in half maximal activity (I.C.50); cited from earlier work
T1 sequence (P35573 whole entry): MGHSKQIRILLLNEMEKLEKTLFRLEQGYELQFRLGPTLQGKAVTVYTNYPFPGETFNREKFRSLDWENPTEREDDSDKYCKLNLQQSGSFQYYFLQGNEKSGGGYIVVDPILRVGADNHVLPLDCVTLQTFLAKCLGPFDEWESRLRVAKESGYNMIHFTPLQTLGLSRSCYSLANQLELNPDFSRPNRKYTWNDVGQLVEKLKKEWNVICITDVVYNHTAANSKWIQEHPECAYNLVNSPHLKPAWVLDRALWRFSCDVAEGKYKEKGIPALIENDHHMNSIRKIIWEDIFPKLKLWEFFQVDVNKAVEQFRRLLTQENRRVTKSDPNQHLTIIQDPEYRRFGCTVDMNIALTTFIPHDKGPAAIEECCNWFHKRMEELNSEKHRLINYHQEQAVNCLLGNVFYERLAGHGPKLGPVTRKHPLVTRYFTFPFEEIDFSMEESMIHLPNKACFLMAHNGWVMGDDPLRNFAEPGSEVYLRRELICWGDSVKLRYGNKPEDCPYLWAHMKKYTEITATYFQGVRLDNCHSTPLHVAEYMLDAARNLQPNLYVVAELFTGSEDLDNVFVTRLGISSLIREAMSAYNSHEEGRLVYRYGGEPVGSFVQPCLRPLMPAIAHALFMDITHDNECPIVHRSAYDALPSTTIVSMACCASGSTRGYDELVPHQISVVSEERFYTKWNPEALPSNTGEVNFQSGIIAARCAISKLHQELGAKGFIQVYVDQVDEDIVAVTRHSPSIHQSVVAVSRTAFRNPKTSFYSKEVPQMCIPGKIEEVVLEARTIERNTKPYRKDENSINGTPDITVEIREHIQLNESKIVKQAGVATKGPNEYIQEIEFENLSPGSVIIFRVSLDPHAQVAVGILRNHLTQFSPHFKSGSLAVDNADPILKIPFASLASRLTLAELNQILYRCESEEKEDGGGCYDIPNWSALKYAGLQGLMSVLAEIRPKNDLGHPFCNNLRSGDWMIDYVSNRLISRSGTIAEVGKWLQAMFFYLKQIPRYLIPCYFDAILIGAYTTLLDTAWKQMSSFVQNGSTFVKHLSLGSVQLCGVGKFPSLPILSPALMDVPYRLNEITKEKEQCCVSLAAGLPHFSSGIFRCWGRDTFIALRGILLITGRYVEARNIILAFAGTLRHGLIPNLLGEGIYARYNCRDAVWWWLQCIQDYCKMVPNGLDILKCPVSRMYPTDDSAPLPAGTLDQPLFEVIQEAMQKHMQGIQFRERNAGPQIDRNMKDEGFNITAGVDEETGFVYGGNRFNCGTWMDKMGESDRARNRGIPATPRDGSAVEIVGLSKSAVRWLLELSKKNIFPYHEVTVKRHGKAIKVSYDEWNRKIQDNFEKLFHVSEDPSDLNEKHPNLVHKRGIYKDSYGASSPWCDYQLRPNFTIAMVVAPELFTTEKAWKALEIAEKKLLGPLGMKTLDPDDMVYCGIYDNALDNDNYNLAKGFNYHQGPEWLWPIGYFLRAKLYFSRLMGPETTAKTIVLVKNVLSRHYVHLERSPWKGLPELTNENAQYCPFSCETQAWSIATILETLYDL

Phosphorylase = target: T2, Phosphorylase (Rattus norvegicus, UniProt P09811); assay: activity of phosphorylase; format: biochemical; settings: read-out: Phosphorlyase, concentration resulting in half maximal activity (I.C.50)
T2 sequence (P09811 2-850): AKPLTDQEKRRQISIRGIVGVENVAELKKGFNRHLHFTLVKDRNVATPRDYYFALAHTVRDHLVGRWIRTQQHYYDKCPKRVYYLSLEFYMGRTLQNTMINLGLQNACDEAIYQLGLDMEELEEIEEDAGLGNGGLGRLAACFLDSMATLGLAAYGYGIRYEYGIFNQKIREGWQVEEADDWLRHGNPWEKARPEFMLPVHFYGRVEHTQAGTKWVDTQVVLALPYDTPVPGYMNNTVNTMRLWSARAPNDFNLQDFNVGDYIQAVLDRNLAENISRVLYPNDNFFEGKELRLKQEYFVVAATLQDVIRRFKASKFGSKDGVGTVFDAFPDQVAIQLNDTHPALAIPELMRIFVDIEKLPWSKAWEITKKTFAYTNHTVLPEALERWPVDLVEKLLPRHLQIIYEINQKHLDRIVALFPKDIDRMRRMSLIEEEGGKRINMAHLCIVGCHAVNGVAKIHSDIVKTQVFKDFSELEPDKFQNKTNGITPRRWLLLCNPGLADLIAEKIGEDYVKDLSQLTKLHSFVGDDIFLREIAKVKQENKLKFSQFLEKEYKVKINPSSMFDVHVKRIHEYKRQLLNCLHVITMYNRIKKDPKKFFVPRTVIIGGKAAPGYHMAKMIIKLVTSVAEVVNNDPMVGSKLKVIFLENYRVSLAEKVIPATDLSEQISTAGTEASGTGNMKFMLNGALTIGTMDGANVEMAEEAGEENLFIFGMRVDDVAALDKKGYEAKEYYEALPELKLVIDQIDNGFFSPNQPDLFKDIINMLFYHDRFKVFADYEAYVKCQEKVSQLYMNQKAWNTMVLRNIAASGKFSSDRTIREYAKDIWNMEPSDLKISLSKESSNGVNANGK
Protocol: Phosphorylase was either purchased from Sigma or extracted from rat livers according to Stalmans et. al. (Eur.J.Biochem. 49 (1974), 415). The activity of phosphorylase was determined as described by Bergmeyer (1983; in: Meth. of Enzymatic Analysis, 2, 293-295, Weinheim, (ed.) Verlag Chemie).

α-1,6-glucosidase [2] = target: T1, α-1,6-glucosidase; assay: activity of the glycogen debranching enzyme, α-1,6-glucosidase; format: biochemical; settings: read-out: 1,6-glucosidase, concentration resulting in half maximal activity (I.C.50)
Protocol: The activity of the glycogen debranching enzyme, α-1,6-glucosidase, was determined as described by Brown and Brown (1966; in : Meth. in Enzymology, 8, 515-524, Neufeld and Ginsburg (Eds.) Academic Press).

Compound | fasting plasma glucose after treatment (in words) (type 2 diabetic patients) | Delta plasma glucose (female ob/OB mice; 8 mg/kg i.v.) | reduction of blood glucose (in words) (female ob/OB mice) | Glucose production without glucagon (Rat hepatocytes; 1 μM) | Glucose production with glucagon (0.5 nM) (Rat hepatocytes; 1 μM) | inhibition of hepatocyte glucose production (in words) (Rat hepatocytes) | IC50 (α-1,6-glucosidase [1]) | Delta plasma glucose (female ob/OB mice; 50 mg/kg i.v.) | Glucose production without glucagon (Rat hepatocytes; 50 μM) | Glucose production with glucagon (0.5 nM) (Rat hepatocytes; 50 μM) | IC50 (Phosphorylase) | IC50 (α-1,6-glucosidase [2])
OCCN1C[C@H](O)[C@@H](O)[C@H](O)[C@H]1CO [miglitol] | not reduced | – | – | – | – | – | – | – | – | – | – | –
Cl.OC[C@H]1NC[C@@H](O)[C@@H]1O [Compound 2, (2R,3R,4R)-3,4-Dihydroxy-2-(hydroxymethyl)pyrrolidine, hydrochloride] | – | 0.5 ± 0.6 mmol/L | potent principle for reducing blood glucose | 19% | 41% | inhibit basal and glucagon stimulated hepatocyte glucose production | 0.18 µM | – | – | – | – | –
OC[C@H]1NC[C@H](O)[C@@H](O)[C@@H]1O [dNOJ, 1-deoxynojirimycin] | – | – | unable to reduce blood glucose | – | – | insufficient to suppress hepatic glucose production | – | 5.7 ± 1.2 mmol/L | 92% | 195% | > 200 µM | 1.1 µM
